Laboratory results as given in patent US20250236596A1, “HYDROXYLAMINE-BASED EGFR INHIBITORS FOR TREATMENT OF CANCER WITH BRAIN METASTASES” (University of Georgia Research Foundation, Inc., priority 2022, published 2025).

Assays:
MDCKII-MDR1 cells = experiment: MDCKII-MDR1 cell permeability assay; format: in vitro ADME, canine; conditions: result in words
Protocol: Compounds were evaluated at Pharmaron Inc. for their ability to permeate Caco-2 cells and MDCKII-MDR1 cells. A 96-well HTS Transwell plate (Corning) was used for the Caco-2 and MDCKII-MDR1 cell seeding. Caco-2 cells were seeded at a density of 6.86×10^5 cells/mL and cultivated for 14-18 days prior to assays. MDCKII-MDR1 cells were seeded at a density of 1.56×10^6 cells/mL and cultivated for 4-8 days prior to assays. To determine the rate of drug transport in both the absorptive (apical to basolateral (A-B)) and secretory (basolateral to apical (B-A)) directions, compounds (5 μM in DMSO for Caco-2 cells, and 1 μM in DMSO for MDCKII-MDR1 cells) were added to the donor wells. Plates were incubated at 37° C. for 2 h and samples (50 μL) were taken at the beginning and end of the incubation in both the donor and acceptor wells with the assay run in duplicate (n=2). Samples were analyzed by LC-MS/MS. The apparent permeability coefficient (Papp) in units (cm/s×10^−6) was calculated using the following equation.
where, VA represents the volume (mL) in the acceptor well. Area is the surface of the membrane (0.143 cm^2 for Transwell-96 well plate) and time is the total transport time in sec.
The efflux ratio was determined using the following equation: Efflux ratio=Papp (B-A)/Papp(A-B)
Where, Papp (B-A) indicates the apparent permeability in the basolateral to apical direction, and Papp (A-B) indicates the apparent permeability in the apical to basolateral direction.

[1] = system: NCI-H3255 NSCLC cell line (EGFR L858R); experiment: CellTiter-Glo viability assay, NCI-H3255; format: cell-based; conditions: Homo sapiens, 72 h, read-out: antiproliferative IC50
Protocol: (§1) The A431, HCC827, SK-BR-3, ZR-75-30, AU565 and Caco-2 cell lines were obtained from ATCC. The NCI-H1975 cell line was obtained from SIBS. The NCI-H3255 cell line was obtained from CoBioer. Engineered Ba/F3 cell lines were obtained from Crown Bioscience. MCKII-MDR1 cells were obtained from the Netherlands Cancer Institute. HEK293 cells were obtained from Invitrogen. A431 cells were cultured in DMEM (Life Technologies) with 10% FBS. HCC827, NCI-H1975 and AU565 cells were cultured in RPMI1640 (Invitrogen) with 10% FBS. NCI-H3255 cells were cultured in BEGM (Lonza) with 10% FBS. Ba/F3 EGFR-del E746_A750/C797S and Ba/F3 EGFR-L858R/C797S cells were cultured in RPMI (Invitrogen) with 10% FBS. SK-BR-3 cells were cultured in McCoy's 5a (Invitrogen) with 10% FBS. ZR-75-30 cells were cultured in RPMI1640 (Invitrogen) with 20% FBS. BT474 cells were cultured in DMEM (Gibco) with 10% FBS and 10 μg/mL Insulin. Caco-2 and MCKII-MDR1 culture information is given in the permeability studies section. […]
(§2) Viability assays using A431, HCC827, NCI-H1975, NCI-H3255, Ba/F3 EGFR-del E746_A750/C797S, Ba/F3 EGFR-L858R/C797S, AU565, SK-BR-3 and ZR-75-30 cells were performed at Crown BioScience. […] Dose-response curves were generated and used to calculate the IC50 values which were calculated on GraphPad Prism from the non-linear regression equation fitted with a sigmoidal dose response and are presented as the mean±SEM.

[2] = system: HER2-positive breast cancer cell lines: AU565, SK-BR-3, BT474 and ZR-75-30; experiment: CellTiter-Glo viability assay, HER2+ breast cancer cell lines; format: cell-based, human; conditions: AU565, SK-BR-3, BT474, ZR-75-30; result in words
Protocol: as §1, §2

CYP3A4 = CYP3A4 (Homo sapiens, UniProt P08684); experiment: Human CYP450 inhibition in human liver microsomes, CYP3A4; format: in vitro ADME; conditions: pooled human liver microsomes, probe midazolam (1 μM), 1′-hydroxylation
CYP3A4, sequence (P08684 whole entry, canonical isoform): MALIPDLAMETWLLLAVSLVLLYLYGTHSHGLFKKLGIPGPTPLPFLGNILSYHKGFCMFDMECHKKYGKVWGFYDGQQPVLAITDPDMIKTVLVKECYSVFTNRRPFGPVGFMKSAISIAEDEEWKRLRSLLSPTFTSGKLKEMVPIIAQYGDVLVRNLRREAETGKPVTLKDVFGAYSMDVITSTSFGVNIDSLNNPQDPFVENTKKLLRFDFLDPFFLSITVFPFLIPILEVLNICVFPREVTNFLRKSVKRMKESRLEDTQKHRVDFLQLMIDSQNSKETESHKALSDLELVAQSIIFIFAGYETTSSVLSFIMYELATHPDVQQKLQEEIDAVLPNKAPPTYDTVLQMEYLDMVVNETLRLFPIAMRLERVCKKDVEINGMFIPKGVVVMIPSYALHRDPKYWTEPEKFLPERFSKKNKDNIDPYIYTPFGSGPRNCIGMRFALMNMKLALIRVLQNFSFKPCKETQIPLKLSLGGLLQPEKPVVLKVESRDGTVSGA
Protocol: Assessment of compound 15 was carried out at Pharmaron Inc. for its potential to inhibit cytochrome P450 (CYP) isoforms using human liver microsomes. The activities tested were CYP1A2-mediated phenacetin O-demethylation, CYP2C19-mediated (S)-mephenytoin 4′-hydroxylation, CYP2C9-mediated diclofenac 4′-hydroxylation, CYP2D6-mediated dextromethorphan O-demethylation and CYP3A4-mediated midazolam 1′-hydroxylation. Concentrations of substrates were phenacetin (40 μM), mephenytoin (50 μM), diclofenac (6 μM), dextromethorphan (2 μM) and midazolam (1 μM). Probe substrates phenacetin, mephenytoin and dextromethorphan were incubated at 37° for 20 min. Probe substrates diclofenac and midazolam were incubated at 37° for 5 min. […] The reactions were initiated by adding NADPH (1 mM final concentration) after a 5 min-preincubation and the assay was ran in duplicate (n=2). Samples were analyzed by UPLC-MS/MS.

[3] = system: NCI-H1975 (EGFR L858R/T790M); experiment: CellTiter-Glo viability assay, NCI-H1975; format: cell-based, human; conditions: 72 h, result in words
Protocol: as §1, §2

[4] = Metabolic stability in liver microsomes; format: in vitro ADME; conditions: human and rat / multiple species; result in words
Protocol: Assessment of the compounds metabolic stability in incubations containing liver microsomes and hepatocytes of human and rat using the compound depletion approach was performed by Pharmaron Inc. Compound 15 underwent additional stability evaluation in monkey and dog hepatocytes. Microsome stability was assessed in duplicate (n=2) in the presence and absence of NADPH with liver microsomes (0.5 mg/mL) from human (BD Gentest) and SD rat (BD Gentest). Compounds were incubated in liver microsomes at 1 μM and samples (30 μL) were taken at 0.5, 15, 30, 45 and 60 min time points for analysis by LC-MS/MS. Hepatocyte stability was assessed in duplicate (n=2) at a working cell density of 0.5×10^6 cells/mL with hepatocytes from human (BioIVT), SD rat (BioIVT), cynomolgous monkey (RILD) or beagle dog (BioIVT). Compounds were incubated in hepatocytes at 1 μM and samples (25 μL) were taken at 0.5, 15, 30, 60, 90 and 120 min time points for analysis by LC-MS/MS. The in vitro half-life and intrinsic clearances were determined as previously described.^19
In vitro half-life (in vitro t1/2) was determined from the slope value in: in vitro t1/2=−(0.693/k).
Where, k, was determined by linear regression of the natural logarithm of the remaining percentage of the parent drug vs incubation time curve.

In the case of COc1cc2ncnc(Nc3cccc(Cl)c3F)c2cc1OCCON1CCN(C)CC1 [Compound 15, N-(3-chloro-2-fluorophenyl)-7-methoxy-6-(2-((4-methylpiperazin-1-yl)oxy)ethoxy)quinazolin-4-amine], the efflux (MDCKII-MDR1 cells) is reported as “low efflux”, the permeability (MDCKII-MDR1 cells) is reported as “excellent permeability” and the IC50 [1] is reported as 7.2 nM. For the same compound, the antiproliferative activity [2] was “moderate antiproliferative activity”, the IC50 at 5 min (CYP3A4) was greater than 30000 nM and the antiproliferative activity [3] was “no activity”. For the same compound, the “stability in liver microsomes” value [4] was “good stability”.
